Measurements reported in patent publication US20260262643A1, “HERBICIDAL BENZOXAZINES” (FMC CORPORATION, priority 2022, published 2026).

Columns and labels:
[1] = tested on: oat, wild; assay: Test C preemergence; format: in vivo, Avena fatua
In short: (§1)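 Seeds sown in loam soil–sand blend received a directed preemergence soil spray of test chemical in non-phytotoxic solvent with surfactant; postemergence plants (2–10 cm, one- to two-leaf stage) were sprayed with the same formulation. Greenhouse-held 10 days, then visually rated for injury versus untreated controls, 0 (no effect) to 100 (complete control).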

[2] = tested on: soybean; assay: Test C postemergence; format: in vivo, Glycine max; details: 10 days, 0 to 100 scale (0 no effect, 100 complete control)
In short: as §1

[3] = tested on: soybean; assay: Test C preemergence; format: in vivo, Glycine max
In short: as §1

[4] = tested on: horseweed; assay: Test C postemergence; format: in vivo, Erigeron canadensis; details: 10 days, 0 to 100 scale (0 no effect, 100 complete control)
In short: as §1

[5] = tested on: kochia; assay: Test C postemergence; format: in vivo, Bassia scoparia; details: 10 days, 0 to 100 scale (0 no effect, 100 complete control)
In short: as §1

[6] = tested on: corn; assay: Test C preemergence; format: in vivo, Zea mays
In short: as §1

[7] = tested on: pigweed, palmer; assay: Test C postemergence; format: in vivo, Amaranthus palmeri; details: 10 days, 0 to 100 scale (0 no effect, 100 complete control)
In short: as §1

[8] = tested on: blackgrass; assay: Test C postemergence; format: in vivo, Alopecurus myosuroides; details: 10 days, 0 to 100 scale (0 no effect, 100 complete control)
In short: as §1

[9] = tested on: barnyardgrass; assay: Test C preemergence; format: in vivo, Echinochloa crusgalli
In short: as §1

[10] = tested on: wheat; assay: Test C postemergence; format: in vivo, Triticum aestivum; details: 10 days, 0 to 100 scale (0 no effect, 100 complete control)
In short: as §1

[11] = tested on: corn; assay: Test C postemergence; format: in vivo, Zea mays; details: 10 days, 0 to 100 scale (0 no effect, 100 complete control)
In short: as §1

[12] = tested on: ryegrass, Italian; assay: Test C postemergence; format: in vivo, Lolium multiflorum; details: 10 days, 0 to 100 scale (0 no effect, 100 complete control)
In short: as §1

[13] = tested on: rice; assay: Test D flooded paddy test; format: in vivo, Oryza sativa; details: 250 g ai/ha, applied to paddy water, visual rating after 13 to 14 days, scale 0 to 100 (0 no effect, 100 complete control)
In short: (§2)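 Plants grown to the 2-leaf stage; pots flooded to 3 cm above soil at treatment and held at that depth throughout. Test compounds applied directly to the paddy water. After 13 to 14 days in a greenhouse, response was rated visually versus controls on a 0 (no effect) to 100 (complete control) scale.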

[14] = tested on: foxtail, giant; assay: Test C postemergence; format: in vivo, Setaria faberi; details: 10 days, 0 to 100 scale (0 no effect, 100 complete control)
In short: as §1

[15] = tested on: barnyardgrass; assay: Test C postemergence; format: in vivo, Echinochloa crusgalli; details: 10 days, 0 to 100 scale (0 no effect, 100 complete control)
In short: as §1

[16] = tested on: kochia; assay: Test C preemergence; format: in vivo, Bassia scoparia
In short: as §1

[17] = tested on: blackgrass; assay: Test C preemergence; format: in vivo, Alopecurus myosuroides
In short: as §1

[18] = tested on: barnyardgrass; assay: Test D flooded paddy test; format: in vivo, Echinochloa crus-galli; details: 250 g ai/ha, applied to paddy water, visual rating after 13 to 14 days, scale 0 to 100 (0 no effect, 100 complete control)
In short: as §2

[19] = tested on: foxtail, giant; assay: Test C preemergence; format: in vivo, Setaria faberi
In short: as §1

[20] = tested on: pigweed, palmer; assay: Test C preemergence; format: in vivo, Amaranthus palmeri
In short: as §1

[21] = tested on: ducksalad; assay: Test D flooded paddy test; format: in vivo, Heteranthera limosa; details: 250 g ai/ha, applied to paddy water, visual rating after 13 to 14 days, scale 0 to 100 (0 no effect, 100 complete control)
In short: as §2

[22] = tested on: galium; assay: Test C postemergence; format: in vivo, Galium aparine; details: 10 days, 0 to 100 scale (0 no effect, 100 complete control)
In short: as §1

[23] = tested on: ragweed; assay: Test C postemergence; format: in vivo, Ambrosia artemisiifolia; details: 10 days, 0 to 100 scale (0 no effect, 100 complete control)
In short: as §1

[24] = tested on: oat, wild; assay: Test C postemergence; format: in vivo, Avena fatua; details: 10 days, 0 to 100 scale (0 no effect, 100 complete control)
In short: as §1

[25] = tested on: ryegrass, Italian; assay: Test C preemergence; format: in vivo, Lolium multiflorum
In short: as §1

[26] = tested on: sedge, umbrella; assay: Test D flooded paddy test; format: in vivo, Cyperus difformis; details: 250 g ai/ha, applied to paddy water, visual rating after 13 to 14 days, scale 0 to 100 (0 no effect, 100 complete control)
In short: as §2

[27] = tested on: wheat; assay: Test C preemergence; format: in vivo, Triticum aestivum
In short: as §1

[28] = tested on: ragweed; assay: Test C preemergence; format: in vivo, Ambrosia artemisiifolia
In short: as §1

[29] = 500 g ai/ha, preemergence, 0 to 100 scale (0 no effect, 100 complete control)
[30] = Preemergence, 125 g ai/ha, 0 to 100 scale, 0 no effect, 100 complete control

SMILES: Cc1cccc2c1OC(C(F)(F)F)CN2C(=O)c1ccnc(-n2cnc(C(C)C)n2)c1 (single isomer, unassigned) [Compound 328]
- Oat, Wild plant response rating [1, 29]: 90
- Plant response rating, Oat, Wild [1, 30]: 30
- Plant response rating, Soybean ([2]; 500 g ai/ha, postemergence): 100
- Plant response rating, Soybean ([2]; Postemergence, 125 g ai/ha): 100
- Soybean plant response rating [3, 29]: 100
- Plant response rating, Soybean [3, 30]: 100
- Plant response rating, Horseweed ([4]; 500 g ai/ha, postemergence): 60
- Plant response rating, Horseweed ([4]; Postemergence, 125 g ai/ha): 0
- Plant response rating, Kochia ([5]; 500 g ai/ha, postemergence): 80
- Plant response rating, Kochia ([5]; Postemergence, 125 g ai/ha): 50
- Corn plant response rating [6, 29]: 90
- Plant response rating, Corn [6, 30]: 30
- Plant response rating, Pigweed, Palmer ([7]; 500 g ai/ha, postemergence): 90
- Plant response rating, Pigweed, Palmer ([7]; Postemergence, 125 g ai/ha): 50
- Plant response rating, Blackgrass ([8]; 500 g ai/ha, postemergence): 80
- Plant response rating, Blackgrass ([8]; Postemergence, 125 g ai/ha): 60
- Barnyardgrass plant response rating [9, 29]: 100
- Plant response rating, Barnyardgrass [9, 30]: 90
- Plant response rating, Wheat ([10]; 500 g ai/ha, postemergence): 30
- Plant response rating, Wheat ([10]; Postemergence, 125 g ai/ha): 30
- Plant response rating, Corn ([11]; 500 g ai/ha, postemergence): 70
- Plant response rating, Corn ([11]; Postemergence, 125 g ai/ha): 20
- Plant response rating, Ryegrass, Italian ([12]; 500 g ai/ha, postemergence): 90
- Plant response rating, Ryegrass, Italian ([12]; Postemergence, 125 g ai/ha): 50
- Plant response rating, Rice (Flood) [13]: 0
- Plant response rating, Foxtail, Giant ([14]; 500 g ai/ha, postemergence): 90
- Plant response rating, Foxtail, Giant ([14]; Postemergence, 125 g ai/ha): 90
- Plant response rating, Barnyardgrass ([15]; 500 g ai/ha, postemergence): 90
- Plant response rating, Barnyardgrass ([15]; Postemergence, 125 g ai/ha): 60
- Kochia plant response rating [16, 29]: 70
- Plant response rating, Kochia [16, 30]: 0
- Blackgrass plant response rating [17, 29]: 80
- Plant response rating, Blackgrass [17, 30]: 80
- Plant response rating, Barnyardgrass (Flood) [18]: 15
- Foxtail, Giant plant response rating [19, 29]: 100
- Plant response rating, Foxtail, Giant [19, 30]: 100
- Pigweed, Palmer plant response rating [20, 29]: 100
- Plant response rating, Pigweed, Palmer [20, 30]: 40
- Plant response rating, Ducksalad (Flood) [21]: 30
- Plant response rating, Galium ([22]; 500 g ai/ha, postemergence): 100
- Plant response rating, Galium ([22]; Postemergence, 125 g ai/ha): 80
- Plant response rating, Ragweed ([23]; 500 g ai/ha, postemergence): 60
- Plant response rating, Ragweed ([23]; Postemergence, 125 g ai/ha): 40
- Plant response rating, Oat, Wild ([24]; 500 g ai/ha, postemergence): 40
- Plant response rating, Oat, Wild ([24]; Postemergence, 125 g ai/ha): 20
- Ryegrass, Italian plant response rating [25, 29]: 100
- Plant response rating, Ryegrass, Italian [25, 30]: 90
- Plant response rating, Sedge, Umbrella (Flood) [26]: 85
- Wheat plant response rating [27, 29]: 90
- Plant response rating, Wheat [27, 30]: 20
- Ragweed plant response rating [28, 29]: 50
- Plant response rating, Ragweed [28, 30]: 0
